Results reported in patent US8815951B2, “Inhibitors of epoxide hydrolases for the treatment of inflammation” (The Regents of the University of California, priority 1996, dated 2014).
Values joined by “and” are separate entries in the source; they are usually repeats but may differ in a detail not shown here. Equal entries are not always repeated. “Also recorded” adds a separate entry of the source. Where two headings read alike, the source gives them in different places.

How the values were obtained:
[1] = target: recombinant mouse sEH (MsEH) (Mus musculus (Mouse), UniProt P34914); test: Spectrophotometric sEH inhibition assay (NEP2C substrate), recombinant mouse sEH; assay type: biochemical
Procedure: (§1) Recombinant mouse sEH (MsEH) and human sEH (HsEH) were produced in a baculovirus expression system as previously reported. […] The expressed proteins were purified from cell lysate by affinity chromatography. […] Protein concentration was quantified using the Pierce BCA assay using bovine serum albumin as the calibrating standard.
(§2) The mixture was incubated at 30° C. for 5 minutes. […] Assays were performed in quadruplicate.

[2] = target: Human sEH (HsEH) (Homo sapiens (Human), UniProt P34913); test: Spectrophotometric sEH inhibition assay (NEP2C substrate), recombinant human sEH; assay type: biochemical
Procedure: as §1, §2

[3] = test system: Swiss Webster mice; test: Leukotoxin/isoleukotoxin-induced death in mice; assay type: in vivo, mouse; conditions: pretreatment 400 mg/kg i.p. in corn oil, 30 minutes before leukotoxin/isoleukotoxin methyl esters 700 mg/kg i.v.
Procedure: Male Swiss Webster mice (25-28 g) were purchased from Simonsen, Gilroy, Calif. The animals had free access to water and food. […] After 30 minutes of the pretreatment, the mice were treated intravenously through the tail vein with a 1:1 mixture of leukotoxin/isoleukotoxin methyl esters in ethanol (700 mg/kg, 1.0 ml/kg).

[4] = test system: CYP epoxygenase; test: Renal microsomal arachidonic acid metabolism, CYP epoxygenase activity; assay type: biochemical, rat; conditions: concentrations up to 25 μM
Procedure: Renal microsomal arachidonic acid metabolism. Microsomes, cytosol, and S9 fractions were prepared from the renal cortex or outer medulla samples from a single animal as described previously (Kroetz, D. L. et al. Mol Pharmacol 52, 362-372 (1997), Su, P. et al. Am J Physiol 275, […]-438 (1998)). Reaction conditions for the in vitro determination of arachidonic acid epoxygenase activity, metabolite extraction and HPLC analysis were described in detail elsewhere (Su, P. et al. Am J Physiol 275, […]-438 (1998)).

[5] = test system: CYP ω-hydroxylase; test: Renal microsomal arachidonic acid metabolism, ω-hydroxylase activity; assay type: biochemical, rat; conditions: concentrations up to 25 μM
[6] = test system: 14,15-EET hydrolysis in vivo (sEH), SHR; test: Urinary DHET and EET excretion in SHR (GC-MS); set-up: species or system rat; conditions: 3 mg/kg i.p. daily, 24 hr urine after third dose, vehicle 2020
[7] = test system: SHR (spontaneously hypertensive rat); test: Systolic blood pressure by tail cuff in SHR; assay type: in vivo; conditions: for decrease in systolic blood pressure 6 hr after the dose / time by which blood pressure returned to baseline after the dose: single dose 3 mg/kg DCU or equimolar; for effect on blood pressure in the SHR: dose equimolar to 3 mg/kg DCU
Description: Animals. Male SHR and WKY rats 3-13 wks of age were purchased from Charles River Laboratories (Wilmington, Mass.) and housed in a controlled environment with 12 hr light/dark cycles and fed standard laboratory chow for □ 3 days before euthanasia. All animal use was approved by the University of California San Francisco Committee on Animal Research and followed the National Institutes of Health guidelines for the care and use of laboratory animals. For isolation of kidney subcellular fractions, rats were anesthetized with methoxyflurane, the abdominal cavities were opened, and the kidneys were perfused with ice-cold saline. Perfused kidneys were rapidly removed, the cortex and medulla dissected out and immersed in liquid nitrogen. All tissue was stored at −80° C. until preparation of microsomes. In some cases WKY and SHR rats were housed in metabolic cages for up to three days and urine was collected over triphenylphosphine in 24 hr intervals. The urine volume was noted and aliquots were stored at −80° C. prior to extraction and quantitation of DHETs and EETs. […] Systolic blood pressure was measured at room temperature by a photoelectric tail cuff system (Model 179, IITC, Inc., Woodland Hills, Calif.) for up to four days following the dose of inhibitor. Blood pressures are reported as the average of three separate readings over a 30 min period. […] Similar inhibition studies were carried out with equimolar doses of N-cyclohexyl-N′-dodecylurea, N-cyclohexyl-N′-ethylurea and dodecylaamine.

[8] = test system: WKY rats; test: Systolic blood pressure by tail cuff in WKY rats; assay type: in vivo, rat; conditions: single 3 mg/kg dose
Description: Animals. Male SHR and WKY rats 3-13 wks of age were purchased from Charles River Laboratories (Wilmington, Mass.) and housed in a controlled environment with 12 hr light/dark cycles and fed standard laboratory chow for □ 3 days before euthanasia. All animal use was approved by the University of California San Francisco Committee on Animal Research and followed the National Institutes of Health guidelines for the care and use of laboratory animals. For isolation of kidney subcellular fractions, rats were anesthetized with methoxyflurane, the abdominal cavities were opened, and the kidneys were perfused with ice-cold saline. Perfused kidneys were rapidly removed, the cortex and medulla dissected out and immersed in liquid nitrogen. All tissue was stored at −80° C. until preparation of microsomes. In some cases WKY and SHR rats were housed in metabolic cages for up to three days and urine was collected over triphenylphosphine in 24 hr intervals. The urine volume was noted and aliquots were stored at −80° C. prior to extraction and quantitation of DHETs and EETs. […] Systolic blood pressure was measured at room temperature by a photoelectric tail cuff system (Model 179, IITC, Inc., Woodland Hills, Calif.) for up to four days following the dose of inhibitor. Blood pressures are reported as the average of three separate readings over a 30 min period. […]

[9] = test system: insect cell culture expressing rat mEH; test: Toxicity of epoxide-containing xenobiotics in insect cell culture expressing rat mEH; assay type: cell-based
Description: The micosomal enzyme play a significant role in the metabolism of xenobiotics such as polyaromatic toxicants. Additionally, polymorphism studies have underlined a potential role of this enzyme in relation to several diseases, such as emphysema, spontaneous abortion and several forms of cancer. Inhibition of recombinant rat and human mEH can be obtained using primary ureas, amides, and amines. […].

[10] = Table 2, MsEH […], read-out: Mouse sEH IC50
[11] = Table 1, MsEH […], read-out: Mouse sEH IC50
[12] = Table 1, HsEH 0.2 μM (text b16: […])
[13] = unpublished data, C. Morisseau and B. Hammock, 2000, read-out: IC50 with mouse sEH

Row | SMILES | IC50 [1, 10] [µM] | IC50 ([2]; Table 2, HsEH […]) [µM] | also measured
1 | O=C(c1ccccc1)C1OC1c1ccc(-c2c(F)c(F)c(F)c(F)c2F)cc1 (racemic) [4-C6F5—C6H4 / C6H5 / C═O / ±] | 0.14 ± 0.01 | 0.2 ± 0.01 | –
2 | Cc1ccc(C(O)C2OC2c2ccc(-c3ccccc3)cc2)cc1 (racemic) [4-C6H5—C6H4 / 4-CH3—C6H4 / CH—OH / ±] | 0.09 ± 0.01 | 0.15 ± 0.02 | –
3 | Cc1ccc(C(=O)C2OC2c2ccc(-c3ccccc3)cc2)cc1 (racemic) [4-C6H5—C6H4 / 4-CH3—C6H4 / C═O / ±] | 0.1 ± 0.01 | 0.19 ± 0.03 | –
4 | COC(c1ccccc1)C1OC1c1ccc(-c2ccccc2)cc1 (racemic) [4-C6H5—C6H4 / C6H5 / CH—OCH3 / ±] | 0.48 ± 0.05 | 1.36 ± 0.07 | –
5 | OC(c1ccccc1)C1OC1c1ccc(-c2ccccc2)cc1 (racemic) [4-C6H5—C6H4 / C6H5 / CH—OH / ±] | 0.51 ± 0.04 | 0.72 ± 0.03 | –
6 | ON=C(c1ccccc1)C1OC1c1ccc(-c2ccccc2)cc1 (racemic) [4-C6H5—C6H4 / C6H5 / C═NOH / ±] | 42 ± 3 | 35 ± 1 | –
7 | [O-][S+](c1ccccc1)C1OC1c1ccc(-c2ccccc2)cc1 (racemic) [4-C6H5—C6H4 / C6H5 / S═O / ±] | 73 ± 5 | 70 ± 3 | –
8 | OC(c1ccccc1)C1OC1c1ccc(F)cc1 (racemic) [4-F-C6H4 / C6H5 / CH—OH / ±] | 72 ± 16 | 18 ± 2 | –
9 | O=C(c1ccccc1)C1OC1c1ccc(F)cc1 (racemic) [4-F-C6H4 / C6H5 / C═O / ±] | 1.3 ± 0.3 | 0.3 ± 0.1 | –
10 | CC(O)C1OC1c1ccc([N+](=O)[O-])cc1 (racemic) [4-NO2—C6H4 / CH3 / CH—OH / ±] | 6.5 ± 0.2 | 39 ± 1 | –
11 | CC(=O)C1OC1c1ccc([N+](=O)[O-])cc1 (racemic) [4-NO2—C6H4 / CH3 / C═O / ±] | 163 ± 11 | 269 ± 5 | –
12 | O=[N+]([O-])c1ccc(C2OC2CO)cc1 (racemic) [4-NO2—C6H4 / H / CH—OH / ±] | 5 ± 1 | – | –
13 | COC(c1ccccc1)C1OC1c1ccccc1 (racemic) [C6H5 / C6H5 / CH—OCH3 / ±] | 103 ± 5 | 34 ± 1 | –
14 | OC(c1ccccc1)C1OC1c1ccccc1 (racemic) [C6H5 / C6H5 / CH—OH / ±] | 12.6 ± 0.9 | 22 ± 2 | –
15 | ON=C(c1ccccc1)C1OC1c1ccccc1 (racemic) [C6H5 / C6H5 / C═NOH / ±] | 3.5 ± 0.5 | 0.29 ± 0.01 | –
16 | O=C(c1ccccc1)C1OC1c1ccccc1 (racemic) [C6H5 / C6H5 / C═O / ±] | 2.9 ± 0.3 | 0.3 ± 0.1 | –
17 | O=[N+]([O-])c1ccc(C2OC2CO)cc1 (stereo not drawn) [4-NO2—C6H4 / H / CH—OH / R,R] | 1200 ± 25 | – | –
18 | O=[N+]([O-])c1ccc(C2OC2CO)cc1 (stereo not drawn) [4-NO2—C6H4 / H / CH—OH / S,S] | 1.6 ± 0.6 | – | –
19 | O=C(Nc1ccc(Cl)cc1)NC1CCCCC1 [Compound 20] | – | – | IC50 [1, 11]: 0.19 ± 0.02 µM; IC50 [2, 12]: 0.4 ± 0.05 µM
20 | O=C(Nc1ccc(O)cc1)NC1CCCCC1 [Compound 128] | – | – | IC50 [1, 11]: 0.79 ± 0.08 µM; IC50 [2, 12]: 11.1 ± 0.8 µM
21 | CCCCCCCCCCCCNC(=O)NC1CCCCC1 [Compound 297] | – | – | IC50 [1, 11]: 0.05 ± 0.01 µM
22 | O=C(Nc1ccc(Cl)c(Cl)c1)Nc1ccc(Cl)c(Cl)c1 [Compound 299] | – | – | IC50 [1, 11]: 0.7 ± 0.1 µM
23 | CC(C)(C)CC(C)(C)NC(=O)NC1CCCCC1 [Compound 347] | – | – | IC50 [1, 11]: 0.07 ± 0.01 µM; IC50 [2, 12]: 3.1 ± 0.07 µM
24 | CCCCCCCCNC(=O)NCCC [Compound 429] | – | – | IC50 [1, 11]: 0.38 ± 0.04 µM; IC50 [2, 12]: 1.7 ± 0.4 µM
25 | CCCCCCCCCCCCNC(=O)CC1CCCCC1 [Compound 514] | – | – | IC50 [1, 11]: 0.27 ± 0.01 µM
26 | O=C(NC1CCCCC1)NC1CCCCC1 [DCU, N,N′-dicyclohexylurea] | – | – | effect on animal death induced by leukotoxin/isoleukotoxin [3]: either blocked the animal death induced by leukotoxin/isoleukotoxin or lengthened the lives of the mice; effect on CYP epoxygenase activity [4]: no effect; effect on ω-hydroxylase activity [5]: no effect; excretion of total epoxygenase-derived products (EETs and DHETs) [6]: 1237 pg/mg creatinine; decrease in systolic blood pressure 6 hr after the dose ([7]; SHR): 22±4 mm Hg and 22 mm Hg; time by which blood pressure returned to baseline after the dose ([7]; SHR): ≤ 24 h; systolic blood pressure ([7]; SHR, three to five hr after the fourth daily 3 mg/kg dose, vehicle 128±5): 102±5 mm Hg; effect on blood pressure in the WKY [8]: no effect; also recorded: unaffected
27 | CCCCCCCCCCCCNC(=O)NC1CCCCC1 [N-cyclohexyl-N′-dodecylurea] | – | – | IC50 [1, 13]: 0.05 ± 0.01 µM; decrease in systolic blood pressure 6 hr after the dose ([7]; SHR): 12±2 mm Hg and 12 mm Hg; time by which blood pressure returned to baseline after the dose ([7]; SHR): ≤ 24 h
28 | CCNC(=O)NC1CCCCC1 [N-cyclohexyl-N′-ethylurea] | – | – | IC50 [1, 13]: 51.7 ± 0.7 µM; effect on blood pressure in the SHR [7]: no effect
29 | CCCCCCCCCCCCN [dodecylamine, reference compound] | – | – | effect on blood pressure in the SHR [7]: no effect
30 | CCCCCCCC/C=C/CCCCCCCC(N)=O [elaidamide] | – | – | effect on toxicity of epoxide-containing xenobiotics [9]: enhances the toxicity effects of epoxide-containing xenobiotics

Now from value to molecule, other results behind:

Row | IC50 [1, 10] [µM] | IC50 ([2]; Table 2, HsEH […]) [µM] | SMILES | also measured
31 | 2.3 ± 0.4 | 0.31 ± 0.02 | [O-][S+](c1ccccc1)C1OC1c1ccccc1 (racemic) [C6H5 / C6H5 / S—O / ±] | –
32 | 1100 ± 23 | – | OCC1OC1c1ccccc1 (stereo not drawn) [C6H5 / H / CH—OH / R,R] | –
33 | 2400 ± 46 | – | OCC1OC1c1ccccc1 (stereo not drawn) [C6H5 / H / CH—OH / S,S] | –
